Measured values taken from US20240261418A1, “SOS1 DEGRADING AGENT AND PREPARATION METHOD THEREFOR AND APPLICATION THEREOF” (SHANGHAI LEADINGTAC PHARMACEUTICAL CO. LTD., priority 2021, published 2024).

Molecular target: T1, SOS1 protein (Homo sapiens, UniProt Q07889)
T1 sequence (Q07889 1-1333): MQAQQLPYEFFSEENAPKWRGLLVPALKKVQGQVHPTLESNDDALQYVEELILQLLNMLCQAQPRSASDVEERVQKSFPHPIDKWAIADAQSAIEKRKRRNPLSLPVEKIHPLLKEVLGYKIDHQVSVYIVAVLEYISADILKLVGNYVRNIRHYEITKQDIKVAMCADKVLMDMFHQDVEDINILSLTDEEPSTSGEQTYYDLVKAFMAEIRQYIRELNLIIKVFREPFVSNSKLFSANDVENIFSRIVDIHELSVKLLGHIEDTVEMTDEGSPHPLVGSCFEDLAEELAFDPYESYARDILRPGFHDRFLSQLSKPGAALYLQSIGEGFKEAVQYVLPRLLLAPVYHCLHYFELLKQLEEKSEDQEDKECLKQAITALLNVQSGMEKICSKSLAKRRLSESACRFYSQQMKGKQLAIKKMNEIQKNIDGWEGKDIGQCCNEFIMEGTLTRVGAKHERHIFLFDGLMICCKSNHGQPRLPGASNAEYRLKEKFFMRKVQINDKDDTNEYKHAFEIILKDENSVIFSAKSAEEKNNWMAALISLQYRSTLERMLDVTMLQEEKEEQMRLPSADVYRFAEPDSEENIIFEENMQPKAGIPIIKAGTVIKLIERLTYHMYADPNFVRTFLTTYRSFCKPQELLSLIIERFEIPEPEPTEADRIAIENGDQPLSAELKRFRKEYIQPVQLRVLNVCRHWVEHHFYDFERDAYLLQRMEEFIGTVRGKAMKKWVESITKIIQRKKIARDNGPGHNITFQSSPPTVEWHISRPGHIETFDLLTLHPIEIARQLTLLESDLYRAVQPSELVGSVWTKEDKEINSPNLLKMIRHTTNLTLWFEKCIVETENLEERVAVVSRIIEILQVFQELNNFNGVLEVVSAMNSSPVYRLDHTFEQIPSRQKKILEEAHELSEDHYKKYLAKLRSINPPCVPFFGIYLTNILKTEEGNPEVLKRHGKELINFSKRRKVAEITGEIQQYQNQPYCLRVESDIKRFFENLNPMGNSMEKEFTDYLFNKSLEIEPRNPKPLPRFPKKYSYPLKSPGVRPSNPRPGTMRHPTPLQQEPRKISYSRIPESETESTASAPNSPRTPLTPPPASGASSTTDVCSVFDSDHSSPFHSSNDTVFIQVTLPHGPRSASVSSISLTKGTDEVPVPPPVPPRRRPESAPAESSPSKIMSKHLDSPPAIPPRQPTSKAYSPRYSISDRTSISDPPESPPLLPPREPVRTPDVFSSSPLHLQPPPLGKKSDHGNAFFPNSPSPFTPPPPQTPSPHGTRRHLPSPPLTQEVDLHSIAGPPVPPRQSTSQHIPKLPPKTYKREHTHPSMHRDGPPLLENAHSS
Experiment: SOS1 degradation assay (Western blot) in NCI-H358 cells
Type: cell-based
Conditions: NCI-H358 (KRAS G12C), 24 h
Method: The specific procedures were as follows:
0.95 mL of cells were seeded into each well of a 24-well cell culture plate to achieve a cell density of 5×10^5 cells/well; the cell plate was incubated in an incubator at 37° C. with 5% CO2 overnight. Then 50 μL of the compound solution after dilution was added to each of the wells with the corresponding cells, so that the final concentration of the compound was in a range of 0.03-3000 nM.
After dosing, the cell plate was incubated in an incubator at 37° C. with 5% CO2 for 24 h. […] After the plate was left to stand on ice for 30 min, the protein lysate in each well was transferred to a 1.5 mL centrifuge tube and centrifuged at 15000 g for 20 min at 4° C. The cell lysate supernatant after centrifugation was cryopreserved at −80° C. for testing and was used for determining the degradation level of the SOS1 protein by a WB method. The concentration of total protein in the cell lysate supernatant was determined using the BCA Protein Quantification Kit (Tiangen, PA115-02).
The concentration of total protein in the cell lysate was determined by BCA. The total protein was adjusted to 0.5 μg/μL with PBS and 5×SDS- PAGE protein loading buffer (Beyotime, P001L), incubated in a water bath at 100° C. for 15 min, incubated in an ice bath on ice for 5 min, centrifuged at 14000 g for 1 min at 4° C., and mixed well as a loading sample for WB. Protein electrophoresis was performed on a precast gel (KeyGEN, KGMG010W15) with a loading volume of 10 μL (total protein: 5 μg) using a Tris-MOPS-SDS running solution (Adamas, P1598253) at a constant voltage of 120 V for 55 min. After the electrophoresis, the protein on the gel strip was transferred to a PVDF membrane at a constant current of 250 mA for 65 min. After the membrane transfer, the membrane was incubated in 1× QuickBlock blocking buffer (Beyotime, P0235) for 30 min at room temperature. […] The protein map was subjected to gray value analysis by the chemiluminescence imaging system from Clinx. […] Then the degradation rate was calculated by comparing the gray correction value with the gray correction value of the control group. Then nonlinear curve fitting was performed by GraphPad Prism 8 in the logarithmic concentration-inhibition rate to obtain the DC50 and Dmax values of the compounds.

Row | SMILES | DC50 | Dmax
1 | COc1cc2nc(C)nc(N[C@H](C)c3cc(-c4c(Cl)cccc4CN(C)C)cs3)c2cc1[C@H]1CC[C@H](C(=O)N2CCN(CC3CCC4(CC3)CCN(C(=O)c3ccc(Cl)c(N5CCC(=O)NC5=O)c3)CC4)CC2)CC1 [Example 1, 1-(2-chloro-5-(9-((4-((1R,4R)-4-(4-(((R)-1-(4-(2-chloro-6-((dimethylamino)methyl)phenyl)thien-2-yl)ethyl)amino)-7-methoxy-2-methylquinazolin-6-yl)cyclohexane-1-carbonyl)piperazin-1-yl)methyl)-3-azaspiro[5.5]undecane-3-carbonyl)phenyl)dihydropyrimidine-2,4(1H,3H)-dione] | < 50 nM | 80 to 100%
2 | COc1cc2nc(C)nc(N[C@H](C)c3cc(-c4c(Cl)cccc4CN(C)C)cs3)c2cc1[C@H]1CC[C@H](C(=O)N2CCC(CCOCC3CCN(C(=O)c4ccc(Cl)c(N5CCC(=O)NC5=O)c4)CC3)CC2)CC1 [Example 5, 1-(2-chloro-5-(4-((2-(1-((1R,4R)-4-(4-(((R)-1-(4-(2-chloro-6-((dimethylamino)methyl)phenyl)thien-2-yl)ethyl)amino)-7-methoxy-2-methylquinazolin-6-yl)cyclohexane-1-carbonyl)piperidin-4-yl)ethoxy)methyl)piperidine-1-carbonyl)phenyl)dihydropyrimidine-2,4(1H,3H)-dione] | < 50 nM | 80 to 100%
